Where two headings read alike, the source gives them in different places.
Key:
mOct2 [1] = biological target: T1, mOct2 (Mus musculus, UniProt O70577); conditions: MPP higher affinity than metformin
T1 sequence (O70577 1-553): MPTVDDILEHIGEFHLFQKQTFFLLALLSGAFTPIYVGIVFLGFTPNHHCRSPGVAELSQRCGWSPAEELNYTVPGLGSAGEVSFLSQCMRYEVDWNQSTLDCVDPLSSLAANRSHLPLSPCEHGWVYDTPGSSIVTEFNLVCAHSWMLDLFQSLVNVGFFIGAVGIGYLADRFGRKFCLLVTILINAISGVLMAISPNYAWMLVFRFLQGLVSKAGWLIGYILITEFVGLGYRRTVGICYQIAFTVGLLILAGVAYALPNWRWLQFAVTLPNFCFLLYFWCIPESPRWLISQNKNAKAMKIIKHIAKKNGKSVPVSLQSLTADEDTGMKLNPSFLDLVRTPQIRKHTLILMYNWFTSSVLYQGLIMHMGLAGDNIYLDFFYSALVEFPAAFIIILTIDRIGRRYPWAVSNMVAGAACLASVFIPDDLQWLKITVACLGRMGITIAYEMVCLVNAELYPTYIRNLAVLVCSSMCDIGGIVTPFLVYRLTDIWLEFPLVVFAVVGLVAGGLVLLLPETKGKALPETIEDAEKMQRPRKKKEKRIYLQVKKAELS
Experimental: (§1) The uptake assays were performed as previously described in 24-well plates. […] After incubation, the uptake was stopped by aspirating the reaction mixture and washing the cells three times with 0.4 mL ice-cold PBS buffer. Cells were then solubilized with 0.6 mL of 1 N NaOH, overnight. The whole content of each well (0.6 mL) was transferred to a scintillation vial (Perkin Elmer). The radio-labelled amount was determined by liquid scintillation counting.
(§2) All experiments were conducted on two separate days in triplicate.
(§3) The cellular protein amounts were analyzed in parallel to the transport experiments by the Bradford method as previously described.
(§4) The Km and Vmax values were obtained using SigmaPlot version 13 by fitting the Michaelis–Menten equation V = Vmax*[S]/(Km + [S]), where V refers to the rate of substrate transport, Vmax refers to the maximum rate of substrate transport, [S] refers to the concentration of substrate, and Km is defined as the concentration of substrate at the half-maximal transport rate.

hOCT2 [2] = biological target: T2, hOCT2 (Homo sapiens, UniProt O15244); conditions: MPP higher affinity than metformin
T2 sequence (O15244 1-555): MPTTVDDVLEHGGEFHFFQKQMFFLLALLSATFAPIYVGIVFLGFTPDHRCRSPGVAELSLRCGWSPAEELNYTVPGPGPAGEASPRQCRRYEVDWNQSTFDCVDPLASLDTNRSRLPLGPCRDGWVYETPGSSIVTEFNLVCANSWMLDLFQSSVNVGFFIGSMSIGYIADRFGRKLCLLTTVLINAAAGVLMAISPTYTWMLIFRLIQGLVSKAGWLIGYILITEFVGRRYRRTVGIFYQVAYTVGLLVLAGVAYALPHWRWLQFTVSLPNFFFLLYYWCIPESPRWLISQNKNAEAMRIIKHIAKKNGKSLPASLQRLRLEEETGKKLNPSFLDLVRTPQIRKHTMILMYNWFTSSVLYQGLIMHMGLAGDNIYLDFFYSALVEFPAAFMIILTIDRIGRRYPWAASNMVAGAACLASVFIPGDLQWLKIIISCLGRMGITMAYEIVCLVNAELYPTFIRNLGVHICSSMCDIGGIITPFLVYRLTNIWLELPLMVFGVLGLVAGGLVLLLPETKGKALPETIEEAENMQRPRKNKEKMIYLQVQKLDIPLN
Experimental: as §1, §2, §3, §4

hOCT2 [3] = biological target: T2, hOCT2; experiment: Inhibition of hOCT2-mediated 14C-metformin uptake in transfected HEK293 cells; format: cell-based; design: expressed in transfected cells; host or cells: HEK293 (stably transfected)
Experimental: as §1
(§5) All inhibition experiments were conducted on at least two separate days in triplicate.
(§6) For screening experiments, cis-inhibition was carried out in duplicate by measuring the uptake of the labeled probe substrate in the absence and presence of 10 µM or 100 µM of the respective pesticide or drug. […] Inhibitory effects in percent were calculated from net-uptake. […]

hOCT2 [4] = biological target: T2, hOCT2; design: expressed in transfected cells; host or cells: HEK293 (stably transfected); conditions: cited from earlier work
mOct2 [5] = biological target: T1, mOct2; experiment: Inhibition of mOct2-mediated 14C-metformin uptake in transfected HEK293 cells; format: cell-based; design: expressed in transfected cells; host or cells: HEK293 (stably transfected)
Experimental: as §1, §5, §6

OCT2 = tested on: OCT2; design: method as in PMID 19833842; conditions: OCT2-overexpressing HEK293 cells; read-out: IC50, YM155 uptake; cited from earlier work
MATEs = tested on: MATEs; design: method as in ref 33 (Wittwer et al.); conditions: ref 33 (Wittwer et al.); read-out: IC50, MATEs-mediated ASP+ uptake; cited from earlier work
[6] = HEK293, 10 µM test compound; 1 µM [14C]metformin, 2 min, HEK293; negative = stimulation; read-out: Inhibitory Effects (%) hOCT2 10 µM Mean
[7] = HEK293, 100 µM test compound; 1 µM [14C]metformin, 2 min, HEK293; negative = stimulation; read-out: Inhibitory Effects (%) hOCT2 100 µM Mean
[8] = HEK293; read-out: Inhibitory Effects (%) mOct2 10 µM Mean
[9] = HEK293; read-out: Inhibitory Effects (%) mOct2 100 µM Mean

C[n+]1ccc(-c2ccccc2)cc1.[I-] [MPP, 1-Methyl-4-phenylpyridinium iodide]
Fold difference in affinity (Km) of mOct2 between MPP and metformin (mOct2 [1]): 89 fold
Fold difference in affinity (Km) of hOCT2 between MPP and metformin (hOCT2 [2]): 64 fold

C[n+]1ccc(-c2cc[n+](C)cc2)cc1 [Paraquat]
inhibition at 10 µM (hOCT2 [3]; HEK293, read-out: Inhibitory Effects (%) hOCT2 10 µM Mean): -15%
inhibition at 100 µM (hOCT2 [3]; HEK293, read-out: Inhibitory Effects (%) hOCT2 100 µM Mean): -52%
Km (hOCT2 [4]; read-out: Km, concentration dependent uptake by human OCT2): 114 µM
inhibition at 10 µM (mOct2 [5]; HEK293, read-out: Inhibitory Effects (%) mOct2 10 µM Mean): -9%
inhibition at 100 µM (mOct2 [5]; HEK293, read-out: Inhibitory Effects (%) mOct2 100 µM Mean): -48%

CCN(CC)CCNC(=O)c1ccc(N)cc1 [Procainamid]
IC50 (OCT2): 92 µM
inhibition at 10 µM (hOCT2 [3]; HEK293; read-out: Inhibitory Effects (%) hOCT2 10 µM Mean): -20%
inhibition at 100 µM (hOCT2 [3]; HEK293; read-out: Inhibitory Effects (%) hOCT2 100 µM Mean): -44%
inhibition at 10 µM (mOct2 [5]; HEK293, 10 µM test compound; 1 µM [14C]metformin, 2 min, HEK293; negative = stimulation; read-out: Inhibitory Effects (%) mOct2 10 µM Mean): -16%
inhibition at 100 µM (mOct2 [5]; HEK293, 100 µM test compound; 1 µM [14C]metformin, 2 min, HEK293; negative = stimulation; read-out: Inhibitory Effects (%) mOct2 100 µM Mean): -30%

CNC(=C[N+](=O)[O-])NCCSCc1ccc(CN(C)C)o1 [Ranitidine]
inhibition at 10 µM (hOCT2 [3]; [6]): -43%
inhibition at 100 µM (hOCT2 [3]; [7]): -33%
Km (hOCT2 [4]; ref 36 (Tahara et al.), read-out: Km, substrate of hOCT2): 65.2 µM
inhibition at 10 µM (mOct2 [5]; [8]): -37%
inhibition at 100 µM (mOct2 [5]; [9]): -16%

CC(C)c1nc(CN(C)C(=O)N[C@H](C(=O)N[C@@H](Cc2ccccc2)C[C@H](O)[C@H](Cc2ccccc2)NC(=O)OCc2cncs2)C(C)C)cs1 [Ritonavir]
IC50 (MATEs): 4.4 µM
inhibition at 10 µM (hOCT2 [3]; [6]): -10%
inhibition at 100 µM (hOCT2 [3]; [7]): -38%
inhibition at 10 µM (mOct2 [5]; [8]): 1%
inhibition at 100 µM (mOct2 [5]; [9]): -8%

Reference: article PMC9780857 (International Journal of Molecular Sciences, 2022)
